Results taken from patent publication US20140005153A1, “Off-Note Masking” (GIVAUDAN S. A., priority 2011, published 2014).

What was measured:
[1] = off-note / off-taste masking, lowest effective level; conditions: in vivo
Source text: (§1) There is also provided an orally-receivable or -ingestible composition comprising an off-note-masking proportion of 1-(2-hydroxyphenyl)-3-(pyridin-4-yl)propane-1-one or a salt thereof 1-(2-hydroxyphenyl)-3-(pyridin-4-yl)propane-1-one (hereinafter referred to as “Compound 1”) is disclosed in United States published application No. 2010/272656. In this publication, the compound is described as an effective sweetness enhancer. It is a surprising feature of this disclosure that the same compound can deliver an off-note- or off-taste-masking effect at a concentration far below the concentration at which it is perceived as sweet. The minimum level at which the sweetness enhancement effect of Compound 1 can be detected is 35 ppm, but the off-note- or off-taste-masking effect of the masker can be as low as 2.5 ppm. A practical maximum for off-note masking is 10 ppm.

[2] = sweetness enhancement detection level; conditions: in vivo
Source text: as §1

[3] = blind bench-top tasting panel, cocoa; assay type: in vivo
Source text: (§2) The following compositions are made and tested blind. Using a blind bench-top tasting panel (consisting of 4 to 8 panelists), panelists were asked to record the sensory attribute differences between the control and example samples, specifically focusing on off-notes (reduction or differences).
Cocoa (Dilute 10% in Water to Consume) (Kroger Cocoa Unsweetened)

[4] = blind bench-top tasting panel, soy yogurt; assay type: in vivo
Source text: as §2
Soy Yogurt (O'Soy Organic Soy Yogurt Strawberry Flavor—5 g Protein Per 4 oz Serving)

[5] = blind bench-top tasting panel, fortified mayonnaise; assay type: in vivo
Method: as §2
Fortified Mayonnaise (Smart Balance Omega Plus Light Mayonnaise Dressing—Omega-3 (500 Mg Per 15 g Serving) and Plant Sterols (100 Mg Per 15 g Serving)

[6] = blind bench-top tasting panel, OTC syrup; assay type: in vivo
Method: as §2, with “differences). Over-the-Counter (OTC) Syrup (Kroger Daytime Cold/Flu Relief (Acetaminophen 325 mg per 15 mL; Dextromethorphan HBr 10 mg per 15 mL; Phenylephrine HCl 5 mg per 15 mL))” for “differences).”

[7] = blind bench-top tasting panel, proteinaceous supplement; assay type: in vivo
Source text: as §2
Proteinaceous Supplement (GNC Pro Performance 100% Whey Protein)

[8] = 0.002% by weight in cocoa (unsweetened)
[9] = 0.0015% by weight in whey protein supplement

Compound	off-note- or off-taste-masking effect can be as low as [1]	minimum level at which the sweetness enhancement effect can be detected [2]	panelist preference over the control [3, 8]	panelist preference over the control ([4]; 0.002% by weight in soy yogurt)	panelist preference over the control ([5]; 0.00025% by weight in fortified mayonnaise)	panelist preference over the control ([6]; 0.003% by weight in OTC syrup)	panelist preference over the control ([7]; 0.003% by weight in whey protein supplement)	panelist preference over the control ([5]; 0.0005% by weight in fortified mayonnaise)	panelist preference over the control [7, 9]	panelist preference over the control ([3]; 0.001% by weight in cocoa (unsweetened))	panelist preference over the control ([4]; 0.001% by weight in soy yogurt)	panelist preference over the control ([5]; 0.001% by weight in fortified mayonnaise)	panelist preference over the control ([6]; 0.002% by weight in OTC syrup)
O=C(CCc1ccncc1)c1ccccc1O [Compound 1, 1-(2-hydroxyphenyl)-3-(pyridin-4-yl)propane-1-one]	2.5 ppm	35 ppm	preferred	preferred	preferred	preferred	preferred						
CC1CCC(CCCC(=O)O)C1(C)C (centres unmarked) [Compound 2, 4-[2,2,3-trimethyl-cyclopentyl]-butanoic acid]			preferred	preferred		preferred		preferred	preferred				
CCc1c(C)c2ccc(OC(C)C(=O)O)c(C)c2oc1=O (centres unmarked) [Compound 3, 2-[(3-ethyl-4,8-dimethyl-2-oxo-2H-chromen-7-yl)oxy]propanoic acid]									preferred	preferred	preferred	preferred	preferred
